Reference: US10646488B2 (Araxes Pharma LLC, priority 2016, dated 2020)

What follows are compounds tested against T1, KRAS G12C 1-169, his-tagged protein, GDP-loaded (Homo sapiens, UniProt P01116, G12C) (assay: Covalent binding (% modification) to KRAS G12C by mass spectrometry). Conditions: covalent binding to KRAS G12C after a ten minute incubation period.
T1 construct: KRAS G12C 1-169, his-tagged protein, GDP-loaded
Also: test concentration or dose not given here.

SMILES | Binding %
C=CC(=O)N1C[C@@H](C)N(c2nc(OCCN(CC)CC)nc3c(F)c(-c4c(O)cccc4F)c(Cl)cc23)[C@@H](C)C1 [Compound 16, 1-((3S,5R)-4-(6-chloro-2-(2-(diethylamino)ethoxy)-8-fluoro-7-(2-fluoro-6-hydroxyphenyl)quinazolin-4-yl)-3,5-dimethylpiperazin-1-yl)prop-2-en-1-one] | ++ (++ indicates binding activity from 50 to 90%)
C=CC(=O)N1CCN(c2nc(N3CC(N(C)C)C3)nc3c(F)c(-c4c(O)cccc4F)c(Cl)cc23)C[C@H]1C [Compound 56, 1-((2R)-4-(6-chloro-2-(3-(dimethylamino)azetidin-1-yl)-8-fluoro-7-(2-fluoro-6-hydroxyphenyl)quinazolin-4-yl)-2-methylpiperazin-1-yl)prop-2-en-1-one] | +++ (+++ indicates binding activity greater than 90%)
C=CC(=O)N1[C@H](C)CN(c2nc(N)nc3c(F)c(-c4c(C)ccc5cn[nH]c45)c(Cl)cc23)C[C@@H]1C [Compound 6, 1-((2S,6R)-4-(2-amino-6-chloro-8-fluoro-7-(6-methyl-1H-indazol-7-yl)quinazolin-4-yl)-2,6-dimethyl-piperazin-1-yl) prop-2-en-1-one] | ++ (++ indicates binding activity from 50 to 90%)
C=CC(=O)N1C[C@H](C)N(c2nc(OCCN3CC(F)(F)C3)nc3c(F)c(-c4c(O)cccc4F)c(Cl)cc23)C[C@H]1C [Compound 38, 1-((2R,5 S)-4-(6-Chloro-2-(2-(3,3-Difluoroazetidin-1-Yl)Ethoxy)-8-Fluoro-7-(2-Fluoro-6-Hydroxyphenyl)Quinazolin-4-Yl)-2,5-Dimethylpiperazin-1-Yl)Prop-2-En-1-One] | +++ (+++ indicates binding activity greater than 90%)
C=CC(=O)N1C[C@H](C)N(c2nc(N3CC(N(C)C)C3)nc3c(F)c(-c4c(O)cccc4F)c(Cl)cc23)C[C@H]1C (atropisomer, axis not shown) [Compound 53, 1-((2R,5S)-4-((R)-6-chloro-2-(3-(dimethylamino)azetidin-1-yl)-8-fluoro-7-(2-fluoro-6-hydroxyphenyl)quinazolin-4-yl)-2,5-dimethyl-piperazin-1-yl) prop-2-en-1-one] | + (+ indicates binding activity up to 50%)
C=CC(=O)N1CCN(c2nc(OCCN(CC)CC)nc3c(F)c(-c4c(O)cccc4F)c(Cl)cc23)[C@@H](C)C1 [Compound 9, 1-((3S)-4-(6-chloro-2-(2-(diethylamino)ethoxy)-8-fluoro-7-(2-fluoro-6-hydroxyphenyl)quinazolin-4-yl)-3-methylpiperazin-1-yl)prop-2-en-1-one] | ++ (++ indicates binding activity from 50 to 90%)
C=CC(=O)N1C[C@@H](C)N(c2nc(OCCN3CC(F)(F)C3)nc3c(F)c(-c4c(O)cccc4F)c(Cl)cc23)[C@@H](C)C1 [Compound 22, 1-((3S,5R)-4-(6-chloro-2-(2-(3,3-difluoroazetidin-1-yl)ethoxy)-8-fluoro-7-(2-fluoro-6-hydroxyphenyl)quinazolin-4-yl)-3,5-dimethyl-piperazin-1-yl) prop-2-en-1-one] | ++ (++ indicates binding activity from 50 to 90%)
C=CC(=O)N1CCN(c2nc(N3CC(N(C)C)C3)nc3c(F)c(-c4c(C)ccc5cn[nH]c45)c(Cl)cc23)C[C@H]1C (atropisomer, axis not shown) [Compound 71, 1-((R)-4-((S)-6-chloro-2-(3-(dimethylamino)azetidin-1-yl)-8-fluoro-7-(6-methyl-1H-indazol-7-yl)quinazolin-4-yl)-2-methyl-piperazin-1-yl) prop-2-en-1-one] | + (+ indicates binding activity up to 50%)

Same assay, conditions: covalent binding to KRAS G12C after a three minute incubation period

SMILES | Binding %
C=CC(=O)N1C[C@H](C)N(c2nc(N3CC4(CCCN(C5CC5)C4)C3)nc3c(F)c(-c4c(C)ccc5[nH]ncc45)c(Cl)cc23)C[C@H]1C [Compound 182, 1-((2R,5S)-4-(6-chloro-2-(6-cyclopropyl-2,6-diazaspiro[3.5]nonan-2-yl)-8-fluoro-7-(5-methyl-1H-indazol-4-yl)quinazolin-4-yl)-2,5-dimethyl-piperazin-1-yl) prop-2-en-1-one] | + (+ indicates binding activity greater than 0% and up to 50%)
C=CC(=O)N1CCN(c2nc(OCCN(CC)CC)nc3c(F)c(-c4c(O)cccc4F)c(Cl)cc23)C[C@H]1C [Compound 85, 1-((2R)-4-(6-chloro-2-(2-(diethylamino)ethoxy)-8-fluoro-7-(2-fluoro-6-hydroxyphenyl)quinazolin-4-yl)-2-methyl-piperazin-1-yl) prop-2-en-1-one] | ++ (++ indicates binding activity from 50 to 90%)
C=CC(=O)N1C[C@H](C)N(c2nc(N3CC(N(C)C)C3)nc3c(F)c(-c4cc(O)cc5ccccc45)c(C(F)(F)F)cc23)C[C@H]1C [Compound 178, 1-((2R,5S)-4-(2-(3-(dimethylamino)azetidin-1-yl)-8-fluoro-7-(3-hydroxynaphthalen-1-yl)-6-(trifluoromethyl)quinazolin-4-yl)-2,5-dimethyl-piperazin-1-yl) prop-2-en-1-one] | +++ (+++ indicates binding activity greater than 90%)
C=CC(=O)N1CCN(c2nc(N3CC(N(CC)CC)C3)nc3c(F)c(-c4c(O)cccc4F)c(Cl)cc23)C[C@H]1C [Compound 164, 1-((2R)-4-(6-chloro-2-(3-(diethylamino)azetidin-1-yl)-8-fluoro-7-(2-fluoro-6-hydroxyphenyl)quinazolin-4-yl)-2-methyl-piperazin-1-yl) prop-2-en-1-one] | ++ (++ indicates binding activity from 50 to 90%)
C=CC(=O)N1C[C@H](C)N(c2nc(N3CC(N(C)C4CCC4)C3)nc3c(F)c(-c4c(C)ccc5[nH]ncc45)c(Cl)cc23)C[C@H]1C [Compound 143, 1-((2R,5S)-4-(6-chloro-2-(3-(cyclobutyl (methyl)amino)azetidin-1-yl)-8-fluoro-7-(5-methyl-1H-indazol-4-yl)quinazolin-4-yl)-2,5-dimethyl-piperazin-1-yl) prop-2-en-1-one] | +++ (+++ indicates binding activity greater than 90%)
C=CC(=O)N1C[C@H](C)N(c2nc(N3CC(N(C)C)C3)nc3c(F)c(-c4ccc(Cl)cc4F)c(Cl)cc23)C[C@H]1C [Compound 161, 1-((2R,5S)-4-(6-chloro-7-(4-chloro-2-fluoro-phenyl)-2-(3-(dimethylamino)azetidin-1-yl)-8-fluoroquinazolin-4-yl)-2,5-dimethyl-piperazin-1-yl) prop-2-en-1-one] | + (+ indicates binding activity greater than 0% and up to 50%)
C=CC(=O)N1C[C@H](C)N(c2nc(OCCN3CC(F)(F)C3)nc3c(F)c(-c4cc(O)cc5ccccc45)c(Cl)cc23)C[C@H]1C [Compound 169, 1-((2R,5S)-4-(6-chloro-2-(2-(3,3-difluoroazetidin-1-yl)ethoxy)-8-fluoro-7-(3-hydroxynaphthalen-1-yl)quinazolin-4-yl)-2,5-dimethyl-piperazin-1-yl) prop-2-en-1-one] | ++ (++ indicates binding activity from 50 to 90%)
C=CC(=O)N1C[C@H](C)N(c2nc(N3CC(N(CC)CC)C3)nc3c(F)c(-c4c(C)ccc5[nH]ncc45)c(Cl)cc23)C[C@H]1C (atropisomer, axis not shown) [Compound 152, 1-((2R,5S)-4-(6-chloro-2-(3-(diethylamino)azetidin-1-yl)-8-fluoro-7-((S)-5-methyl-1H-indazol-4-yl)quinazolin-4-yl)-2,5-dimethyl-piperazin-1-yl) prop-2-en-1-one] | + (+ indicates binding activity greater than 0% and up to 50%)
C=CC(=O)N1C[C@H](C)N(c2nc(N3CC(N(C)C(C)C)C3)nc3c(F)c(-c4c(C)ccc5[nH]ncc45)c(Cl)cc23)C[C@H]1C [Compound 123, 1-((2R,5S)-4-(6-chloro-8-fluoro-2-(3-(isopropyl (methyl)amino)azetidin-1-yl)-7-(5-methyl-1H-indazol-4-yl)quinazolin-4-yl)-2,5-dimethyl-piperazin-1-yl) prop-2-en-1-one] | + (+ indicates binding activity greater than 0% and up to 50%)
C=CC(=O)N1C[C@H](C)N(c2nc(N3CC(N(CC)CC)C3)nc3c(F)c(-c4c(O)cccc4F)c(Cl)cc23)C[C@H]1C (atropisomer, axis not shown) [Compound 176, 1-((2R,5S)-4-(6-chloro-2-(3-(diethylamino)azetidin-1-yl)-8-fluoro-7-((R)-2-fluoro-6-hydroxyphenyl)quinazolin-4-yl)-2,5-dimethyl-piperazin-1-yl) prop-2-en-1-one] | + (+ indicates binding activity greater than 0% and up to 50%)
C=CC(=O)N1C[C@H](C)N(c2nc(OCCCN(CC)CC)nc3c(F)c(-c4c(O)cccc4F)c(Cl)cc23)C[C@H]1C [Compound 158, 1-((2R,5S)-4-(6-chloro-2-(3-(diethylamino)propoxy)-8-fluoro-7-(2-fluoro-6-hydroxyphenyl)quinazolin-4-yl)-2,5-dimethyl-piperazin-1-yl) prop-2-en-1-one] | +++ (+++ indicates binding activity greater than 90%)
C=CC(=O)N1C[C@H](C)N(c2nc(N3CC(N(C)C)C3)nc3c(F)c(-c4cc(O)cc5ccccc45)c(Cl)cc23)C[C@H]1C (atropisomer, axis not shown) [Compound 219, 1-((2R,5S)-4-(6-chloro-2-(3-(dimethylamino)azetidin-1-yl)-8-fluoro-7-((S)-3-hydroxynaphthalen-1-yl)quinazolin-4-yl)-2,5-dimethyl-piperazin-1-yl) prop-2-en-1-one] | +++ (+++ indicates binding activity greater than 90%)
C=CC(=O)N1C[C@H](C)N(c2nc(N3CC(NC)C3)nc3c(F)c(-c4c(O)cccc4F)c(Cl)cc23)C[C@H]1C [Compound 96, 1-((2R,5S)-4-(6-chloro-8-fluoro-7-(2-fluoro-6-hydroxyphenyl)-2-(3-(methylamino)azetidin-1-yl)quinazolin-4-yl)-2,5-dimethyl-piperazin-1-yl) prop-2-en-1-one] | +++ (+++ indicates binding activity greater than 90%)
